Measurements taken from patent US6864068B2, “Antifungal proteins” (Syngenta Limited, priority 1995, dated 2005).
Square brackets hold non-standard residues; d marks the D form. Ends that are not written are not given here. pGlu = O=C1CC[C@@H](C(=O)O)N1

What was measured:
Fusarium culmorum [1] = assay: Liquid growth inhibition assay in half strength potato dextrose broth; assay type: cell-based; conditions: F culmorum; for IC50 (concentration required for 50% growth inhibition): from dose-response curves of serial dilutions; for type of inhibition (hyphal morphology): induction of multiple branches near the tips
Description: Yeast cells transformed with either pTG3828, pMFprepro/Rs AFP2 or PMFpre/RsAFP2 were grown in selective SD medium until a saturated culture was obtained. To assess the antifungal activity of proteins secreted by the yeast cells, the supernatant of the yeast cultures was filtered (sterile 0.22 μm filter) and serially diluted in sterile water. Diluted samples (20 μl) were incubated in microtiter plate wells with 80 μl of half strength potato dextrose broth (Difco) containing spores 10^4 spores/ml) of Fusarium culmorum.
Growth of the fungi was monitored by microspectrophotometry as described by Broekaert et al (1990, FEMS Microbiol Lett, 69:55-60). Homogenates of yeast cells were prepared by spinning down 1 ml of a saturated yeast culture, suspending the cells in 200 μl of water, vortexing the cells in the presence of 0.2 g of glass beads (425-600 μm), and clearing the homogenate by centrifugation (1 min, 10000×g). Antifungal activity could only be detected in the culture medium of yeast cells transformed with pMFprepro/RsAFP2, which contained about 2 μg/ml of Rs-AFP2 equivalents. The activity of the homogenate of these cells, as well as that of culture media and cell homogenates of yeast cells transformed with pMFpre/RsAFP2 or pTG3828 transformed yeasts was below the detection limit (about 0.2 μg/ml of Rs-AFP2 equivalents).
The supernatant of 100 ml of a saturated culture of yeast transformed with pMFprepro/RsAFP2 (grown on minimal selective SD medium supplemented with 0.5% w/v of casamino acids) was centrifuged (4000 rpm, 10 min), and filtered (0.45 μm) to remove yeast cells and debris. Tris-HC1 (pH9) was added to the supernatant to a final concentration of 50 mM. The sample was loaded at a flow rate of 2 ml/min on an anion exchange chromatography column (Q-Sepharose Fast Flow, 20 ml bed volume, Pharmacia), on-line connected with a disposable reversed-phase C8 silica column (Bond Elut, 500 mg solid phase, Varian, Harbor City, USA). The antifungal activity was not retained on the Q-Sepharose matrix but bound to the C8 silica matrix. […] The latter eluate was dried in a rotating vacuum concentrator, redissolved in 0.5 ml 15% (v/v) acetonitrile containing 0.1% (v/v) TFA, and was loaded on a reversed-phase C2/C18 silica column (Pep-S, 5 μm beads, 0.4×25 cm, Pharmacia connected to a Waters 600 HPLC station pre-equilibriated with 15% acetonitrile containing 0.1% (v/v) TFA. After loading, the column was rinsed with the same buffer until the absorbance reached background level. The column was subsequently eluted with a 15 minute linear gradient from 15% to 50% acetonitrile containing 0.1% TFA at a flow rate of 1 ml/min. The eluate was monitored for proteins by on-line measurement of the absorbance at 280 nm. […] Twenty μl fractions were tested in a liquid growth inhibition assay: 20 μl samples were incubated in microtiter plate wells with 80 μl of half strength potato dextrose broth (Difco) containing 10^4 spores/ml of F culmorum; growth of the fungi was monitored by microspectrophotometry as described by Broekaert et al (1990, FEMS Microbiol Lett, 69: 55-60).
The specific antifungal activity of RPC-purified peak A material, as well as that of plant-derivable Rs-AFP2, was determined by measuring the percentage growth inhibition of F culmorum caused by serial dilutions of the protein samples. […]

F culmorum [2] = assay: Specific antifungal activity of Rs-AFP2 isoforms in SMF− and SMF+ media; assay type: cell-based; set-up: IC50 SMF− / IC50 SMF+: unit not given here
Description: For each isoform, two independent purifications were carried out and the antifungal activity was determined in duplicate using F culmorum as a test fungus in two different media: a low ionic strength medium called SMF-(Terras et al, 1992, J Biol Chem, 267:15301-15309) and the same medium supplemented with 1 mM CaCl2 and 50 mM KCl called SMF+. The presence of salts in the test medium, especially salts with divalent cations, reduces the specific activity of Rs-AFP2. Seed-purified as well as yeast-expressed wild type Rs-AFP2 served as a control in the assays.
The relative specific activity is expressed as the specific activity of the mutant divided by the specific activity of yRs-AFP2 and multiplied by 100. […] The specific activity was measured in medium SMF−and SMF+.
Deviations are given as standard error of the mean (sem) based on the triplicate experiments. In SMF−, the medium without added salts, most of the derivatives show no decrease or only a minor decrease in antifungal activity, while in SMF+, the medium with added salts, there is a significant decrease in antifungal activity for several Rs-AFP2 isoforms.

F culmorum [3] = assay: Growth inhibition in SMF with varying CaCl2 or KCl (FIG. 7); assay type: cell-based
Description: Their antifungal activity was determined in SMF with increasing Ca^2+ or K^+ concentration and compared with that of plant-derivable wild type Rs-AFP2 (isolated from seed) as well as yeast purified Rs-AFP2. FIG. 7 is a graph of the percentage growth inhibition of F culmorum caused by 10 μg/ml of yeast-purified Rs-AFP2 (SEQ ID NO: 20) (open circles), seed-purified Rs-AFP2 (SEQ ID NO: 77) (closed circles), Rs-AFP2/G9R (SEQ ID NO: 38) (squares) and Rs-AFP2/V39R (SEQ ID NO: 43) (triangles) in a medium consisting of SMF with varying concentrations of CaCl2 (panel A) and KCl (panel B).

Alternaria brassicicola = assay: Antifungal activity in three media differing in ionic strength (Table 3); assay type: cell-based; conditions: 72 hours
Description: (§1) The antifungal activity of the G9R and V39R Rs-AFP2 isoforms was also assessed on a set of seven different phytopathogenic fungi in three media differing in ionic strength: SMF−, SMF plus 1 mM CaCl2 and 50 mM KCl, and SMF plus 5 mM CaCl2 and 50 mM KCl. The fungi tested were: Alternaria brassicicola, Ascochyta pisi, Botrytis cinerea, Fusarium culmorum, Nectria haematococca, Phoma betae and Verticillium dahliae.

Ascochyta pisi = assay: as above; assay type: cell-based; conditions: 72 hours
Description: as §1

Botrytis cinerea = assay: as above; assay type: cell-based; conditions: 72 hours
Description: as §1

Fusarium culmorum [4] = assay: as above; assay type: cell-based; conditions: 96 hours
Description: as §1

Nectria haematococca = assay: as above; assay type: cell-based; conditions: 72 hours
Description: as §1

Phoma betae = assay: as above; assay type: cell-based
Description: as §1

Verticillium dahliae = assay: as above; assay type: cell-based; conditions: 96 hours
Description: as §1

various fungi = conditions: cited from earlier work

yRs-AFP2: yeast-expressed wild-type Rs-AFP2 (QKLCQRPSGTWSGVCGNNNACKNQCIRLEKARHGSCNYVFPAHKCICYFPC; listed as Raphanus sativus) [reference compound]
IC50 (concentration required for 50% growth inhibition) (Fusarium culmorum [1]): about 3 μg/ml | type of inhibition (hyphal morphology) (Fusarium culmorum [1]): characteristic morphological distortion of the fungal hyphae | RELATIVE SPECIFIC ACTIVITY (%) IN MEDIUM SMF+ (F culmorum [2]; 1/IC50 of mutant divided by that of yRs-AFP2 x 100, 48 hour incubation, SMF with 1 mM CaCl2 and 50 mM KCl, preliminary tests): 100% | RELATIVE SPECIFIC ACTIVITY (%) IN MEDIUM SMF− (F culmorum [2]; 1/IC50 of mutant divided by that of yRs-AFP2 x 100, 48 hour incubation, low ionic strength medium, preliminary tests): 100% | IC50 SMF+ (F culmorum [2]; 72 hours growth, high salt medium (1 mM CaCl2, 50 mM KCl), triplicate): 8.5 | IC50 SMF− (F culmorum [2]; 72 hours growth, low salt medium, triplicate): 2.7

Rs-AFP2: plant-derivable wild-type antifungal protein 2 from Raphanus sativus (radish) seeds ([pGlu]KLCQRPSGTWSGVCGNNNACKNQCIRLEKARHGSCNYVFPAHKCICYFPC; cysteine pairing not given here; listed as Raphanus sativus) [reference compound]
IC50 (concentration required for 50% growth inhibition) (Fusarium culmorum [1]): about 3 μg/ml | type of inhibition (hyphal morphology) (Fusarium culmorum [1]): characteristic morphological distortion of the fungal hyphae | activity in the presence of 100 mM KCl (F culmorum [3]; SMF with 100 mM KCl, FIG. 7, 10 μg/ml): drastically reduced | CaCl2 concentration at which fully active (F culmorum [3]; protein 10 μg/ml): ≤ 1.25 mM | growth inhibition in the presence of 5mM CaCl2 (F culmorum [3]; protein 10 μg/ml, SMF with 5mM CaCl2): basically inactive | IC50 VALUES, A brassicicola, SMF + 1 mM CaCl2/50 mM KCl (Alternaria brassicicola): >50 µg/mL | IC50 VALUES, A brassicicola, SMF + 5 mM CaCl2/50 mM KCl (Alternaria brassicicola): >100 µg/mL | IC50 VALUES, A brassicicola, SMF (Alternaria brassicicola; SMF−): 3.2 µg/mL | IC50 VALUES, A pisi, SMF + 1 mM CaCl2/50 mM KCl (Ascochyta pisi): >50 µg/mL | IC50 VALUES, A pisi, SMF + 5 mM CaCl2/50 mM KCl (Ascochyta pisi): >100 µg/mL | IC50 VALUES, A pisi, SMF (Ascochyta pisi; SMF−): 1.9 µg/mL | IC50 VALUES, B cinerea, SMF + 1 mM CaCl2/50 mM KCl (Botrytis cinerea): >50 µg/mL | IC50 VALUES, B cinerea, SMF + 5 mM CaCl2/50 mM KCl (Botrytis cinerea): >100 µg/mL | IC50 VALUES, B cinerea, SMF (Botrytis cinerea; SMF−): 1.8 µg/mL | IC50 VALUES, F culmorum, SMF + 1 mM CaCl2/50 mM KCl (Fusarium culmorum [4]): 4.6 µg/mL | IC50 VALUES, F culmorum, SMF + 5 mM CaCl2/50 mM KCl (Fusarium culmorum [4]): 22.0 µg/mL | IC50 VALUES, F culmorum, SMF (Fusarium culmorum [4]; SMF−): 2.1 µg/mL | IC50 VALUES, N haematococca, SMF + 1 mM CaCl2/50 mM KCl (Nectria haematococca): 48.0 µg/mL | IC50 VALUES, N haematococca, SMF + 5 mM CaCl2/50 mM KCl (Nectria haematococca): >100 µg/mL | IC50 VALUES, N haematococca, SMF (Nectria haematococca; SMF−): 2.0 µg/mL | IC50 VALUES, P betae, SMF + 1 mM CaCl2/50 mM KCl (Phoma betae; 72 hours): 14.0 µg/mL | IC50 VALUES, P betae, SMF + 5 mM CaCl2/50 mM KCl (Phoma betae; 72 hours): 27.0 µg/mL | IC50 VALUES, P betae, SMF (Phoma betae; SMF−, 72 hours): 0.9 µg/mL | activity against P betae compared with the G9R and V39R isoforms, in words (Phoma betae; Table 3 data): appeared to be more active | IC50 VALUES, V dahliae, SMF + 1 mM CaCl2/50 mM KCl (Verticillium dahliae): 11.0 µg/mL | IC50 VALUES, V dahliae, SMF + 5 mM CaCl2/50 mM KCl (Verticillium dahliae): 50.0 µg/mL | IC50 VALUES, V dahliae, SMF (Verticillium dahliae; SMF−): 1.0 µg/mL | activity relative to Rs-AFP1 on various fungi (various fungi): two- to thirty-fold more active | salt-tolerance relative to Rs-AFP1 (various fungi): increased salt-tolerence
